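Where inhibition never reached the appropriate level, the endpoint shown equals the highest concentration tested. Otherwise, values were interpolated linearly from a five-concentration, 48-hour dose response in 96-well plates. GI50 is the concentration that inhibits growth by half. TGI is the concentration that stops growth completely.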
Tests used:
Assay in all cases: NCI tumour cell line growth inhibition, 48 h
[1] = test system: MCF7 breast
[2] = test system: K-562 leukemia
[3] = test system: M14 melanoma
[4] = test system: UACC-62 melanoma
[5] = test system: SW-620 colon
[6] = test system: HT29 colon
[7] = test system: MDA-MB-435
[8] = test system: A498 renal
[9] = test system: UO-31 renal
[10] = test system: SK-OV-3 ovarian

In the case of `COc1ccc(-n2ccnc2-c2cc(OC)c(OC)c(OC)c2)cc1`, the GI50 [1] is reported as 1.55 µM, the TGI [1] is reported as > 100 µM and the GI50 [2] is reported as 3.14 µM. For the same molecule, the TGI [2] was > 100 µM, the GI50 [3] was 2.46 µM and the TGI [3] was > 100 µM. For the same molecule, the GI50 [4] was 2.61 µM, the TGI [4] was 27.3 µM and the GI50 [5] was 2.37 µM. The TGI [5] was > 100 µM, the GI50 [6] was 1.86 µM and the GI50 [7] was 0.303 µM. The TGI [7] was 1.32 µM, the GI50 [8] was 0.798 µM and the TGI [8] was 5.14 µM. The GI50 [9] was 4.91 µM, the TGI [9] was 71.2 µM and the GI50 [10] was 5.76 µM. The TGI [10] was > 100 µM.

With `COc1ccc(C2=NN(C(=O)c3cc(OC)c(OC)c(OC)c3)C(c3ccc(N(C)C)cc3)C2)cc1` (stereo unspecified) the GI50 [1] was 0.318 µM, the GI50 [2] was 0.551 µM and the TGI [2] was > 100 µM. For the same molecule, the GI50 [3] was 0.496 µM, the TGI [3] was > 21 µM and the GI50 [4] was 0.496 µM. The TGI [4] was > 100 µM, the GI50 [5] was 0.427 µM and the TGI [5] was > 100 µM. The GI50 [6] was 0.395 µM, the GI50 [7] was 0.205 µM and the TGI [7] was 0.478 µM. It also gave a GI50 [8] of 0.337 µM, a TGI [8] of 9.23 µM and a GI50 [9] of 0.558 µM. The TGI [9] was > 100 µM, the GI50 [10] was 0.463 µM and the TGI [10] was 58.2 µM.

In the case of `CCN(CC)Cc1c(/C=C\c2cc(OC)c(OC)c(OC)c2)ccc(OC)c1O`, the TGI [1] is reported as 99.4 µM, the TGI [2] is reported as > 100 µM and the TGI [3] is reported as > 59.1 µM. The TGI [4] was 27.7 µM, the TGI [5] was > 100 µM and the TGI [6] was 9.48 µM. For the same molecule, the TGI [7] was 0.826 µM, the TGI [8] was 17.4 µM and the TGI [9] was > 94.1 µM. For the same molecule, the TGI [10] was 10.2 µM.

With `O=C(Nc1ccccc1)c1cc(S(=O)(=O)Nc2nc3ccccc3o2)c(SCc2ccccc2)cc1Cl` the GI50 [1] was 28.4 µM, the TGI [1] was 80.6 µM and the GI50 [2] was 20.5 µM. The TGI [2] was 68.7 µM, the GI50 [3] was 20.6 µM and the TGI [3] was 38.6 µM. For the same molecule, the GI50 [4] was 17.1 µM, the TGI [4] was 31.6 µM and the GI50 [5] was 17.1 µM. For the same molecule, the TGI [5] was 37.7 µM, the GI50 [6] was 43 µM and the TGI [6] was > 100 µM. The GI50 [7] was 19 µM, the TGI [7] was 37.7 µM and the GI50 [8] was 15.2 µM. The TGI [8] was 34.6 µM, the GI50 [9] was 17.8 µM and the TGI [9] was 48.5 µM. The GI50 [10] was 22.3 µM and the TGI [10] was 58.7 µM.

With `O=C(c1ccco1)c1c(C(F)(F)F)n([O-])c2ccc(Cl)cc2[n+]1=O` the GI50 [1] was 0.443 µM, the GI50 [2] was 0.116 µM and the TGI [2] was 5.1 µM. The GI50 [3] was 0.374 µM, the TGI [3] was 1.67 µM and the GI50 [4] was 0.574 µM. It also gave a TGI [4] of 1.99 µM, a GI50 [5] of 0.22 µM and a TGI [5] of 1.18 µM. For the same molecule, the GI50 [6] was 0.359 µM, the TGI [6] was > 100 µM and the GI50 [7] was 1.9 µM. For the same molecule, the TGI [7] was 7.66 µM, the GI50 [8] was 1.46 µM and the TGI [8] was 2.99 µM. It also gave a GI50 [9] of 1.57 µM, a TGI [9] of 2.98 µM and a GI50 [10] of 2.09 µM. It also gave a TGI [10] of 5.63 µM.

Molecule `C[C@@H](Oc1ccc(C(=O)NS(=O)(=O)C(C)(C)C)cc1C(F)(F)F)c1ccc(Oc2ccccc2)cn1` has a GI50 [1] of 2.65 µM, a TGI [1] of 13.6 µM and a GI50 [2] of 1.25 µM. The TGI [2] was 21 µM, the GI50 [3] was 1.91 µM and the TGI [3] was 7.57 µM. It also gave a GI50 [4] of 3.09 µM, a TGI [4] of 19.8 µM and a GI50 [5] of 3.18 µM. It also gave a TGI [5] of 14.6 µM, a GI50 [6] of 3.1 µM and a TGI [6] of 8.38 µM. The GI50 [7] was 0.585 µM, the TGI [7] was 2.09 µM and the GI50 [8] was 1.91 µM. For the same molecule, the TGI [8] was 6.74 µM, the GI50 [9] was 4.78 µM and the TGI [9] was 19.9 µM. For the same molecule, the GI50 [10] was 3.73 µM and the TGI [10] was 15.2 µM.

— PubChem BioAssay (NCI)
